Experimental data reported in patent US4965280A, “Antifungal carbinols” (E. I. Du Pont de Nemours and Company, priority 1989, dated 1990).
≈ marks a conversion by molar mass, not a printed value. Like-named read-outs stand apart in the source and are kept apart here.

Assays:
[1] = test system: Rhizoctonia solani; assay: Example F rice sheath blight; assay type: in vivo; conditions: Rhizoctonia solani, 144 h, read-out: disease control rating, Ex. F
Outline: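 Compounds, dissolved in acetone at 6% of final volume, were suspended at 100 or 20 ppm in purified water with 250 ppm polyhydric alcohol ester surfactant (TREM 014). Rice seedlings were sprayed with this suspension to run-off.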

[2] = test system: Phytophthora infestans; assay: whole plant or invertebrate; assay type: in vivo; conditions: Phytophthora infestans, in Solanum lycopersicum, read-out: disease control rating, Ex. H, 100 PPM
[3] = test system: Pyricularia oryzae; assay: whole plant or invertebrate; assay type: in vivo; conditions: Pyricularia oryzae, 120 h; for pest or weed control at 100 ppm: read-out: disease control rating, Ex. E, 100 PPM
[4] = test system: Cercosporidium personatum; assay: Example B Peanut Late Leafspot; assay type: in vivo; conditions: Nothopassalora personata, read-out: disease control rating, Ex. B
Outline: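 Compounds were dissolved in acetone (6% of final volume) and suspended at 100 or 20 ppm in purified water containing 250 ppm TREM 014 surfactant (polyhydric alcohol esters). The suspension was sprayed to run-off on peanut seedlings.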

[5] = test system: Sclerotium rolfsii; assay: Example M southern blight; assay type: in vivo; conditions: Agroathelia rolfsii, 336 h; 5 kg/ha; read-out: disease control rating, Ex. M
Description: […] Seeds and soil were then inoculated with a mixture of sand, cereal and mycelium of the fungus Sclerotium rolfsii, causal agent of sourthern blight, and incubated in a growth chamber at 30° C. for 14 days. Disease ratings were then made.

[6] = test system: Pythium aphanadermatum; assay: Example J cucumber damping off; assay type: in vivo; conditions: Pythium, 336 h; 5 kg/ha; read-out: disease control rating, Ex. J
Outline: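 Seeds and soil were inoculated with a mix of sand, cereal and Pythium aphanadermatum mycelium, the fungus responsible for cucumber damping off. They were kept in a growth chamber at 30° C. for 14 days, and disease was then rated to assess control.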

[7] = test system: Rhizoctonia solani; assay: Example K cotton blight; assay type: in vivo; conditions: 336 h, 5 kg/ha, read-out: disease control rating, Ex. K
Description: […] Seeds and soil were then inoculated with a mixture of sand, cereal and mycelium of the fungus Rhizoctonia solani, causal agent of cotton blight, and incubated in a growth chamber at 30° C. for 14 days. Disease ratings were then made.

[8] = test system: Candida albicans ATCC 11651; assay: In vivo systemic Candida infection in mice, primary assay; parameters: species or system Candida albicans; CF-1 female mice; conditions: Candida albicans, read-out: % Survival
Outline: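 CF-1 female mice (20 g, 10 per group) were infected IV with 0.2 ml of 1×10^7/ml C. albicans ATCC 11651, then given test compound subcutaneously at 50 or 150 mg/kg/day at 1 and 6 h post-infection and once daily for three more days. Survival was followed for 21 days against infected untreated mice; ≥70% protection at 14 days was scored active.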

[9] = test system: Botrytis cinerea; assay: Example C bean grey mold; assay type: in vivo; conditions: Botrytis cinerea, 24 h, read-out: disease control rating, Ex. C
Outline: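 Test compounds were taken up in acetone (6% of final volume) and suspended at 100 or 20 ppm in purified water containing 250 ppm TREM 014 surfactant (polyhydric alcohol esters). Broad bean seedlings were sprayed with this suspension until run-off.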

[10] = test system: Erysiphe graminis f. sp. tritici; assay: Example D wheat powdery mildew; assay type: in vivo; conditions: Blumeria graminis, 144 h, read-out: disease control rating, Ex. D
Outline: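 Compounds were dissolved in acetone (6% of final volume), then suspended at 100 or 20 ppm in purified water containing 250 ppm TREM 014 surfactant. Wheat seedlings were sprayed with this suspension to run-off.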

[11] = test system: Candida albicans ATCC 11651; assay: In vitro antifungal MIC, microtiter broth dilution; conditions: for MIC: Candida albicans, ATCC11651, 24 h, read-out: MIC values, C. albicans, 30°, 24 hours
[12] = test system: Plasmorpara viticola; assay: Example I grape downy mildew; assay type: in vivo; conditions: read-out: disease control rating, Ex. I
Outline: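 First, each compound is taken up in acetone amounting to 6% of the final volume. It is then suspended in purified water containing 250 ppm of the polyhydric alcohol ester surfactant TREM 014, at 100 or 20 ppm. Finally, the suspension is sprayed onto grape seedlings until run-off.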

[13] = test system: Aspergillus fumigatus ATCC 28214; assay: In vitro antifungal MIC, microtiter broth dilution; conditions: for MIC: Aspergillus fumigatus, ATCC28214, 24 h, read-out: MIC values, A. fumigatus, 30°, 24 hours
[14] = test system: Fusarium oxysporum f. sp. cucumerinum; assay: Example L cucumber wilt; assay type: in vivo; conditions: 336 h, 5 kg/ha, read-out: disease control rating, Ex. L
Description: […] Seeds and soil were then inoculated with a mixture of sand, cereal and mycelium of the fungus Fusarium oxysporum f. sp. cucumerinum, causal agent of cucumber wilt, and incubated in a growth chamber at 30° C. for 14 days. Disease ratings were then made.

[15] = test system: Venturia inaequalis; assay: Example A apple scab; assay type: in vivo; conditions: read-out: disease control rating, Ex. A
Outline: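 Test compounds were dissolved in acetone (6% of final volume) and suspended at 100 or 20 ppm in purified water containing 250 ppm of the surfactant TREM 014 (polyhydric alcohol esters). Apple seedlings were sprayed with this suspension to the point of run-off.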

[16] = test system: Puccinia recondita; assay: Example G wheat leaf rust; assay type: in vivo; conditions: read-out: disease control rating, Ex. G
[17] = ATCC11651, 168 h, 150 mg/kg per day, day 7
[18] = ATCC11651, 336 h, 150 mg/kg per day, day 14
[19] = ATCC11651, 504 h, 150 mg/kg per day, day 21

Row | SMILES | pest or weed control at 100 ppm [1] [%] | pest or weed control at 100 ppm [2] [%] | pest or weed control at 100 ppm [3] [%] | pest or weed control at 100 ppm [4] [%] | pest or weed control at 5000 g/ha [5] [%] | pest or weed control at 5000 g/ha [6] [%] | pest or weed control at 5000 g/ha [7] [%] | pest or weed control at 100 ppm [9] [%] | pest or weed control at 100 ppm [10] [%] | MIC [11] [µg/mL] | pest or weed control at 100 ppm [12] [%] | MIC [13] [µg/mL] | pest or weed control at 5000 g/ha [14] [%] | pest or weed control at 100 ppm [15] [%] | pest or weed control at 100 ppm [16] [%] | responders at 150 mg/kg [8, 17] [%] | responders at 150 mg/kg [8, 18] [%] | responders at 150 mg/kg [8, 19] [%] | further results
1 | C=C(c1ccc(F)cc1)C(Cn1cncn1)(OC(=O)NC)c1ccc(F)cc1 (stereo not drawn) [Example 363] | 0 | 0 | 0 | 49 | 0 | 0 | 0 | 92 | 28 | 100 (≈ 260 µM) | 0 | 100 (≈ 260 µM) | 0 | 0 | 38 |  |  |  | responders at 150 mg/kg ([8]; ATCC11651, 168 h): 10%; responders at 150 mg/kg ([8]; ATCC11651, 336 h): 0%; responders at 150 mg/kg ([8]; ATCC11651, 504 h): 0%
2 | C=C(c1cccc(Cl)c1)C(O)(Cn1cncn1)c1ccc(Cl)cc1Cl (stereo not drawn) [Example 40, 2-(2,4-Dichlorophenyl)-3-(3-chlorophenyl)-1-(1H-1,2,4-triazol-1-yl)-3-buten-2-ol] | 61 | 0 | 7 | 100 | 0 | 0 | 0 | 80 | 91 | 0.4 (≈ 1.01 µM) | 0 | 3.2 (≈ 8.11 µM) | 0 | 19 | 96 | 100 | 100 |  | 
3 | C=C(c1ccc(OC)cc1)C(O)(Cn1cncn1)c1ccc(F)cc1 (stereo not drawn) [Example 726] | 0 | 0 | 0 |  | 0 | 0 | 20 |  |  | 0.8 (≈ 2.36 µM) | 38 | 6.3 (≈ 18.6 µM) | 0 |  |  | 100 | 80 | 10 | pest or weed control at 20 ppm ([1]; 20 PPM): 0%; pest or weed control at 20 ppm ([3]; read-out: disease control rating, Ex. E, 20 PPM): 0%; pest or weed control at 20 ppm ([4]; 20 PPM): 0%; pest or weed control at 20 ppm ([9]; 20 PPM): 23%; pest or weed control at 20 ppm ([10]; 20 PPM): 81%; pest or weed control at 20 ppm ([15]; 20 PPM): 75%; pest or weed control at 20 ppm ([16]; 20 PPM): 100%
4 | C=C(c1cccc2ccccc12)C(O)(Cn1cncn1)c1ccc(F)cc1 (stereo not drawn) [Example 208] | 61 | 0 | 4 | 37 | 0 | 0 | 0 | 83 | 76 | 1.6 (≈ 4.45 µM) | 74 | 50 (≈ 139 µM) | 0 | 84 | 97 | 0 | 0 | 0 | 
5 | C=C(c1ccc(Cl)cc1)C(O)(Cn1cncn1)c1ccc(Cl)cc1Cl (stereo not drawn) [Example 26, 2-(2,4-Dichlorophenyl)-3-(4-chlorophenyl)-1-(1H-1,2,4-triazol-1-yl)-3-buten-2-ol] | 61 | 23 | 31 | 100 | 35 | 0 | 25 | 96 | 86 |  | 86 |  | 25 | 100 | 97 | 100 | 100 | 100 | MIC values, C. albicans ([11]; 30°, 24 hours): ≤ 0.4 µg/mL; MIC values, A. fumigatus ([13]; 30°, 24 hours): 12.5 µg/mL (≈ 31.7 µM)
6 | C=C(CN(C)C)C(O)(Cn1cncn1)c1ccc(Cl)cc1Cl (stereo not drawn) [Example 453] | 0 | 0 | 0 | 32 | 0 | 0 | 0 | 75 | 94 | 1.6 (≈ 4.69 µM) | 0 | > 100 | 0 | 55 | 100 | 60 | 40 | 30 | 
7 | C=C(c1ccc(Cl)cc1)C(O)(Cn1cncn1)c1ccc(F)cc1F (stereo not drawn) [Example 28, 2-(2,4-Difluorophenyl)-3-(4-chlorophenyl)-1-(1H-1,2,4-triazol-1-yl)-3-buten-2-ol] | 100 | 0 | 81 | 100 | 0 | 0 | 0 | 88 | 98 | 0.03 (≈ 0.0829 µM) | 6 | 1.6 (≈ 4.42 µM) | 0 | 89 | 100 | 100 | 90 |  | 
